Source: US20210024545A1, “SUBSTITUTED DIAZAHETERO-BICYCLIC COMPOUNDS AND THEIR USE” (Bayer Aktiengesellschaft, priority 2016, published 2021)

Assays:
human TASK-1 = human TASK-1 (Homo sapiens, UniProt O14649); assay: Inhibition of recombinant TASK-1 in stably transfected CHO cells, KCl-induced depolarization, voltage-sensitive dye (B-2); assay type: cell-based; design: expressed in transfected cells; host or cells: stably transfected CHO cells; settings: depolarization induced by 40 mM potassium chloride, some mean values from multiple determinations
Sequence of human TASK-1 (O14649 whole entry): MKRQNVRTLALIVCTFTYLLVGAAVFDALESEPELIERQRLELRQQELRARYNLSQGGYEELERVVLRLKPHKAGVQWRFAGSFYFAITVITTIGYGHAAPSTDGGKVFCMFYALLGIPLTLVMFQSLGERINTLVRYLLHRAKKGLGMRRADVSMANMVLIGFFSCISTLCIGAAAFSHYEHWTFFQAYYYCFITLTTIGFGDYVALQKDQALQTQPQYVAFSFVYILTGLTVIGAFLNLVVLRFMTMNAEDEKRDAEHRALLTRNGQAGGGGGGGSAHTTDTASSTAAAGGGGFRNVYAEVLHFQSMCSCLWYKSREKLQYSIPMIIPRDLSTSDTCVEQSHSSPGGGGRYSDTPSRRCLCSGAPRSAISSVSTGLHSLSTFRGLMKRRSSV
Procedure: (§1) B-2. Inhibition of Recombinant TASK-1 and TASK-3 In Vitro
(§2) The investigations on the inhibition of the recombinant TASK-1 and TASK-3 channels were conducted using stably transfected CHO cells. The compounds of the invention were tested here with administration of 40 mM of potassium chloride in the presence of a voltage-sensitive dye using the method described in detail in the following references [Whiteaker et al., Validation of FLIPR membrane potential dye for high-throughput screening of potassium channel modulators, J. Biomol. Screen. 6 (5), 305-312 (2001); Molecular Devices FLIPR Application Note: Measuring membrane potential using the FLIPR® membrane potential assay kit on Fluorometric Imaging Plate Reader (FLIPR®) systems, http://www.moleculardevices.com/reagents-supplies/assay-kits/ion-channels/flipr-membrane-potential-assay-kits]. The activity of the test substances was determined as their ability to inhibit a depolarization induced in the recombinant cells by 40 mM potassium chloride. The concentration which can block half of this depolarization is referred to as IC50).
(§3) Table 2 below lists the IC50 values from this assay determined for individual working examples of the invention (some as mean values from multiple independent individual determinations): […]

human TASK-3 = human TASK-3 (Homo sapiens, UniProt Q9NPC2); assay: Inhibition of recombinant TASK-3 in stably transfected CHO cells, KCl-induced depolarization, voltage-sensitive dye (B-2); assay type: cell-based; design: expressed in transfected cells; host or cells: stably transfected CHO cells; settings: depolarization induced by 40 mM potassium chloride, some mean values from multiple determinations
Sequence of human TASK-3 (Q9NPC2 whole entry): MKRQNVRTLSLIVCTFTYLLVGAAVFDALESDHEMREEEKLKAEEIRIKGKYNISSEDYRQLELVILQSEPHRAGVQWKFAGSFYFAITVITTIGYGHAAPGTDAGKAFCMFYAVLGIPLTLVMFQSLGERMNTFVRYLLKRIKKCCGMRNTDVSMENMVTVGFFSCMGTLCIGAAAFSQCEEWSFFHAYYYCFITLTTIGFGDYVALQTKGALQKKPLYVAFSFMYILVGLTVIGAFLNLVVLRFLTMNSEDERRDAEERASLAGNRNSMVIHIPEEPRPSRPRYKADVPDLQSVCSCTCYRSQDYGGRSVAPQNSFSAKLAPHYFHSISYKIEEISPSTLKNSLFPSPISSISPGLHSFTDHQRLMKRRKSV
Procedure: as §1, §2, §3

Compound	IC50 (human TASK-1) [nM]	IC50 (human TASK-3) [nM]
O=C(C1CCCCC1)N1CC2CCC(C1)N2Cc1c(-c2ccc(Cl)cc2)nc2ccccn12 [Example 93]	2300	510
CC(C)c1ccc(-c2nc3ccccn3c2CN2C3CCC2CN(C(=O)c2ccccc2F)C3)cc1 [Example 94]	530	130
COc1cccc(C(=O)N2CC3CCC(C2)N3Cc2c(-c3ccc(C(C)C)cc3)nc3ccccn23)n1 [Example 95]	1700	350
O=C(C1CCCC1)N1C2CCC1CN(Cc1c(-c3ccc(Br)cc3)nc3ccccn13)C2 [Example 96]	240	4.5
O=C(c1ccccc1F)N1C2CCC1CN(Cc1c(-c3ccc(Br)cc3)nc3ccccn13)C2 [Example 97]	390	7.8
COc1cccc(C(=O)N2C3CCC2CN(Cc2c(-c4ccc(Br)cc4)nc4ccccn24)C3)n1 [Example 98]	450	14
COc1cccc(C(=O)N2C3CCC2CN(Cc2c(-c4ccc(Br)cc4)nc4ccccn24)C3)c1 [Example 99]	470	16
Cc1ccccc1C(=O)N1C2CCC1CN(Cc1c(-c3ccc(Cl)cc3)nc3ccccn13)C2 [Example 100]	250	17
O=C(C1CCC1)N1C2CCC1CN(Cc1c(-c3ccc(Cl)cc3)nc3ccccn13)C2 [Example 101]	370	7.2
COc1ccc(F)cc1C(=O)N1C2CCC1CN(Cc1c(-c3ccc(Cl)cc3)nc3ccccn13)C2 [Example 103]	540	20
O=C(C1CCCCC1)N1C2CCC1CN(Cc1c(-c3ccc(Cl)cc3)nc3ccccn13)C2 [Example 105]	830	20
O=C(c1cc(F)ccc1Cl)N1C2CCC1CN(Cc1c(-c3ccc(Cl)cc3)nc3ccccn13)C2 [Example 106]	870	110
Cc1ccc(F)cc1C(=O)N1C2CCC1CN(Cc1c(-c3ccc(Cl)cc3)nc3ccccn13)C2 [Example 107]	1000	33
COc1cccc(C(=O)N2C3CCC2CN(Cc2c(-c4ccc(Cl)cc4)nc4ccccn24)C3)c1 [Example 108]	1100	95
COc1ccccc1C(=O)N1C2CCC1CN(Cc1c(-c3ccc(Cl)cc3)nc3ccccn13)C2 [Example 109]	693	92
CC(C)c1ccc(-c2nc3ccccn3c2CN2CC3CCC(C2)N3C(=O)c2ccccc2F)cc1 [Example 110]	780	300
O=C(c1ccccc1F)N1C2CCC1CN(Cc1c(-c3ccc(Cl)cn3)nc3ccccn13)C2 [Example 111]	110	25
COc1cccc(C(=O)N2C3CCC2CN(Cc2c(-c4ccc(Cl)cn4)nc4ccccn24)C3)c1 [Example 112]	200	29
O=C(C1CCCC1)N1C2CCC1CN(Cc1c(-c3ccc(Cl)cn3)nc3ccccn13)C2 [Example 113]	89	21
O=C(c1cccc(Cl)c1)N1C2CC1CN(Cc1c(-c3ccc(Cl)cc3)nc3ccccn13)C2 [Example 114]	480	340
O=C(C1CCCC1)N1C2CC1CN(Cc1c(-c3ccc(Cl)cc3)nc3ccccn13)C2 [Example 116]	535	340

Compound	IC50 (human TASK-1) [nM]	IC50 (human TASK-3) [nM]
O=C(c1ccccc1F)N1C2CC1CN(Cc1c(-c3ccc(Cl)cc3)nc3ccccn13)C2 [Example 117]	635	520
O=C(C1CCCCC1)N1C2CC1CN(Cc1c(-c3ccc(Cl)cc3)nc3ccccn13)C2 [Example 118]	860	1000
O=C(c1cc(F)ccc1Cl)N1C2CC1CN(Cc1c(-c3ccc(Cl)cc3)nc3ccccn13)C2 [Example 119]	1100	1500
O=C(c1cccc(OC(F)(F)F)c1)N1C2CC1CN(Cc1c(-c3ccc(Cl)cc3)nc3ccccn13)C2 [Example 120]	1100	180
O=C(C1CCC1)N1C2CC1CN(Cc1c(-c3ccc(Cl)cc3)nc3ccccn13)C2 [Example 121]	1700	2800
CCOc1cccc(C(=O)N2C3CC2CN(Cc2c(-c4ccc(Cl)cc4)nc4ccccn24)C3)c1 [Example 122]	1100	120
CC(C)c1ccc(-c2nc3ccccn3c2CN2CC3CC(C2)N3C(=O)C2CCCC2)cc1 [Example 123]	2000	1600
O=C(c1cccc(OC(F)(F)F)n1)N1C2COCC1CN(Cc1c(-c3ccc(Cl)cn3)nc3ccccn13)C2 [Example 135, (7-{[2-(5-Chloropyridin-2-yl)imidazo[1,2-a]pyridin-3-yl]methyl}-3-oxa-7,9-diazabicyclo[3.3.1]non-9-yl)[6-(trifluoromethoxy)pyridin-2-yl]methanone]	4100	160
COc1ccc(Cl)c(C(=O)N2C3COCC2CN(Cc2c(-c4ccc(Cl)cn4)nc4ccccn24)C3)n1 [Example 136, (3-Chloro-6-methoxypyridin-2-yl)(7-{[2-(5-chloropyridin-2-yl)imidazo[1,2-a]pyridin-3-yl]methyl}-3-oxa-7,9-diazabicyclo[3.3.1]non-9-yl)methanone]	9300	44
COc1ccc(Cl)c(C(=O)N2C3CCC2CN(Cc2c(-c4ccc(Br)cc4)nc4ccccn24)C3)n1 [Example 139, (3-{[2-(4-Bromophenyl)imidazo[1,2-a]pyridin-3-yl]methyl}-3,8-diazabicyclo[3.2.1]oct-8-yl)(3-chloro-6-methoxypyridin-2-yl)methanone]	290	18
COc1ccc(F)c(C(=O)N2C3CCC2CN(Cc2c(-c4ccc(Br)cc4)nc4ccccn24)C3)n1 [Example 140, (3-{[2-(4-Bromophenyl)imidazo[1,2-a]pyridin-3-yl]methyl}-3,8-diazabicyclo[3.2.1]oct-8-yl)(3-fluoro-6-methoxypyridin-2-yl)methanone]	160	21
CC(C)c1ccccc1C(=O)N1C2CCC1CN(Cc1c(-c3ccc(Br)cc3)nc3ccccn13)C2 [Example 141, (3-{[2-(4-Bromophenyl)imidazo[1,2-a]pyridin-3-yl]methyl}-3,8-diazabicyclo[3.2.1]oct-8-yl)(2-isopropylphenyl)methanone]	250	59
COc1ccc(C)c(C(=O)N2C3CC2CN(Cc2c(-c4ccc(Cl)cc4)nc4ccccn24)C3)n1 [Example 142, (3-{[2-(4-Chlorophenyl)imidazo[1,2-a]pyridin-3-yl]methyl}-3,6-diazabicyclo[3.1.1]hept-6-yl)(6-methoxy-3-methylpyridin-2-yl)methanone]	240	98
COc1ccc(C)c(C(=O)N2CC3CCC(C2)N3Cc2c(-c3ccc(Cl)cc3)nc3ccccn23)n1 [Example 143, (8-{[2-(4-Chlorophenyl)imidazo[1,2-a]pyridin-3-yl]methyl}-3,8-diazabicyclo[3.2.1]oct-3-yl)(6-methoxy-3-methylpyridin-2-yl)methanone]	130	14
COc1ccc(C)c(C(=O)N2CC3CCC(C2)N3Cc2c(-c3ccc(C(C)C)cc3)nc3ccccn23)n1 [Example 144, (8-{[2-(4-Isopropylphenyl)imidazo[1,2-a]pyridin-3-yl]methyl}-3,8-diazabicyclo[3.2.1]oct-3-yl)(6-methoxy-3-methylpyridin-2-yl)methanone]	180	27
COc1ccc(C)c(C(=O)N2C3CCC2CN(Cc2c(-c4ccc(C(C)C)cc4)nc4ccccn24)C3)n1 [Example 145, (3-{[2-(4-Isopropylphenyl)imidazo[1,2-a]pyridin-3-yl]methyl}-3,8-diazabicyclo[3.2.1]oct-8-yl)(6-methoxy-3-methylpyridin-2-yl)methanone]	280	27
CC(C)c1csc(C(=O)N2C3CCC2CN(Cc2c(-c4ccc(Cl)cc4)nc4ccccn24)C3)n1 [Example 146, (3-{[2-(4-Chlorophenyl)imidazo[1,2-a]pyridin-3-yl]methyl}-3,8-diazabicyclo[3.2.1]oct-8-yl)(4-isopropyl-1,3-thiazol-2-yl)methanone]	920	340
O=C(c1nccs1)N1C2CCC1CN(Cc1c(-c3ccc(Cl)cc3)nc3ccccn13)C2 [Example 147, (3-{[2-(4-Chlorophenyl)imidazo[1,2-a]pyridin-3-yl]methyl}-3,8-diazabicyclo[3.2.1]oct-8-yl)(1,3-thiazol-2-yl)methanone]	12	15
Cc1csc(C(=O)N2C3CCC2CN(Cc2c(-c4ccc(Cl)cc4)nc4ccccn24)C3)n1 [Example 148, (3-{[2-(4-Chlorophenyl)imidazo[1,2-a]pyridin-3-yl]methyl}-3,8-diazabicyclo[3.2.1]oct-8-yl)(4-methyl-1,3-thiazol-2-yl)methanone]	23	2.7
Cc1cnc(C(=O)N2C3CCC2CN(Cc2c(-c4ccc(Cl)cc4)nc4ccccn24)C3)s1 [Example 149, (3-{[2-(4-Chlorophenyl)imidazo[1,2-a]pyridin-3-yl]methyl}-3,8-diazabicyclo[3.2.1]oct-8-yl)(5-methyl-1,3-thiazol-2-yl)methanone]	3000	300
